Assay results as given in patent US20230321284A1, “COMPOUND, CONTRAST AGENT, AND METHOD FOR PRODUCING COMPOUND” (ST. MARIANNA UNIVERSITY SCHOOL OF MEDICINE, priority 2020, published 2023).

What was measured:
Panc-1 cells = test: Uptake inhibition test of I-ASOR in pancreatic cancer cell line Panc-1 having no asialoglycoprotein receptor (Test Example 1); format: cell-based; details: compound 100 μg/mL, I-ASOR 6 μg/mL, 4° C. for 30 minutes, FIG. 2
Experimental: A similar experiment was conducted using a pancreatic cancer cell line Panc-1 having no asialoglycoprotein receptor. Specifically, the test is based on the following method.
I-ASOR labeled with radioactive iodine (125I) in the same manner as above was prepared as a 6 μg/mL solution in PBS and reacted with Panc-1 cells washed with ice-cold MEM (GIBCO) in 6 wells at 4° C. for 30 minutes. The cells were thoroughly washed and then lysed using 0.1 N NaOH, and radiation dose “A” taken up into the cells was measured (control sample). Similar measurement was performed by the addition of I-ASOR as well as MEG-1, MEG-2, or RYO-1 at 100 μg/mL to measure radiation dose “A” when each compound was added.
Next, the background of nonspecific binding of I-ASOR was measured as follows in order to eliminate the influence of the nonspecific binding of I-ASOR to the cells. Specifically, I-ASOR (6 μg/mL) and a 100-fold concentration (600 μg/mL) of nonlabelled ASOR were mixed and reacted with Panc-1 in the same manner as above. Then, the obtained cells were washed and lysed, and radiation dose “B” was measured. The radiation dose “B” as the background was commonly used in all of the control sample and the sample supplemented with each compound.
Next, “A-B” was calculated as to each sample to calculate I-ASOR specifically taken up into Panc-1. […]

[1] = biological target: T1, asialoglycoprotein receptor (Homo sapiens, UniProt P07306+P07307); test: Uptake inhibition test of I-ASOR in liver cancer cell line HepG2 (Test Example 1); format: cell-based; details: compound 100 μg/mL, I-ASOR 6 μg/mL, 4° C. for 30 minutes, FIG. 1
T1 construct: reacted with HepG2 cells washed with ice-cold MEM (GIBCO) in 6 wells; endogenous in cells; host or cells: HepG2
T1 sequence (P07306 1-291): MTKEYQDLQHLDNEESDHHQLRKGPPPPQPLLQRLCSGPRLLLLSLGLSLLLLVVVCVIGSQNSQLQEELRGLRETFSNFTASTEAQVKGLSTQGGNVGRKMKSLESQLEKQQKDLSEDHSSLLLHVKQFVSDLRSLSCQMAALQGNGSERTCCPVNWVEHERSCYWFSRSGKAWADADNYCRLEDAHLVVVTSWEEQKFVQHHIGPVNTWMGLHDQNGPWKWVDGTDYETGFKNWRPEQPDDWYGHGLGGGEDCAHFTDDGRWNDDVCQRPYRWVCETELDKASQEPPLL
T1 sequence (P07307 1-311): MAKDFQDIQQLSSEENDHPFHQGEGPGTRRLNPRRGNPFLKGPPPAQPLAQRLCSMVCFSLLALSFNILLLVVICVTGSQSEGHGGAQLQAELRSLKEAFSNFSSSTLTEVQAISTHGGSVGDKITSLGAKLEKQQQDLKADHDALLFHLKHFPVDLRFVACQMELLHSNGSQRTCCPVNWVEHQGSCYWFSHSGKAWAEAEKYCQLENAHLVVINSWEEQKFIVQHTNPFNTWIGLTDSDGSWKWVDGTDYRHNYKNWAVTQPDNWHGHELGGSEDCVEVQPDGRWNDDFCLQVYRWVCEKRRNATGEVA
Experimental: RYO-1, MEG-1, and MEG-2 prepared in Examples were subjected to an uptake inhibition test, in which the uptake is performed by an asialoglycoprotein receptor specifically expressed in hepatocytes, using a liver cancer cell line HepG2 in accordance with J Gastroenterol 1998, 33, 855-859. Specifically, the test is based on the following method.
First, orosomucoid (Sigma-Aldrich Co., LLC) was converted to an asialo compound through reaction with immobilized neuraminidase (Sigma-Aldrich Co., LLC) at 37° C. for 12 hours. This asialo-orosomucoid (ASOR) was labeled with radioactive iodine (125I) by use of the chloramine-T method to prepare I-ASOR.
The obtained I-ASOR was prepared as a 6 μg/mL solution in PBS and reacted with HepG2 cells washed with ice-cold MEM (GIBCO) in 6 wells at 4° C. for 30 minutes. The cells were thoroughly washed and then lysed using 0.1 N NaOH, and radiation dose “A” taken up into the cells was measured (control sample). […]
Next, the background of nonspecific binding of I-ASOR was measured as follows in order to eliminate the influence of the nonspecific binding of I-ASOR to the cells. […] Then, the obtained cells were washed and lysed, and radiation dose “B” was measured. […]
Next, “A-B” was calculated as to each sample to calculate I-ASOR specifically taken up into HepG2. […]

[2] = biological target: T1, asialoglycoprotein receptor; test: Comparison of uptake activity by asialoglycoprotein receptor among compounds in HepG2 (Test Example 2); format: cell-based; details: compound 1.0 mM/mL, I-ASOR 0.4 μg/mL, 37° C. for 30 minutes, FIG. 3
Experimental: Uptake activity by an asialoglycoprotein receptor was compared among MEG-2, MEG-4, RYO-1, and RYO-2 by use of the same method as in Test Example 1.
A PBS solution containing 0.4 μg/mL I-ASOR obtained in the same manner as in Test Example 1 and 1.0 mM/mL MEG-2, MEG-4, RYO-1, or RYO-2 was prepared and reacted with HepG2 washed with ice-cold MEM (GIBCO) in 6 wells at 37° C. for 30 minutes. The cells were thoroughly washed and then lysed using 0.1 N NaOH, and radiation dose “A” taken up into HepG2 was measured.
An experiment was conducted as a positive control in which a PBS solution containing 0.4 μg/mL I-ASOR and 1000 μg/mL nonlabelled ASOR was prepared and reacted with HepG2 washed with ice-cold MEM (GIBCO) in 6 wells at 4° C. for 30 minutes.
Next, the background of nonspecific binding of I-ASOR was measured as follows in order to eliminate the influence of the nonspecific binding of I-ASOR to the cells. Specifically, I-ASOR (0.4 μg/mL) and a 100-fold concentration (40 μg/mL) of nonlabelled ASOR were mixed and reacted with HepG2 in the same manner as above. Then, the obtained cells were washed and lysed, and radiation dose “B” was measured. The radiation dose “B” as the background was commonly used in all of the control sample, the positive control sample, and the sample supplemented with each compound.
Next, “A-B” was calculated as to each sample to calculate I-ASOR specifically taken up into HepG2. The experiment was conducted in triplicate to calculate standard deviation.

[3] = Contrast experiment: CT imaging after tail vein injection (Test Example 3); format: in vivo; details: 9-week-old male ICR mouse, MEG-1 dose 52 mg/animal, images before, during, 15 minutes and 1 hour after administration
Experimental: A 9-week-old male ICR mouse purchased from CLEA Japan, Inc. was anesthetized by isoflurane inhalation. While the respiratory condition was monitored with DELPet μCT100 application software (DELBio, Inc.), MEG-1 was gradually administered by injection from the tail vein. The dose of MEG-1 was set to 52 mg/animal.
CT images were taken before administration, during administration, 15 minutes after administration and 1 hour after administration. Image data from the chest to the lower abdomen was reconstituted at a pixel size of […] and converted to dicom data. Further, the images were analyzed with VivoQuant software (inviCRO. LLC).
A similar test was conducted using MEG-2, MEG-4, or RYO-2 instead of MEG-1.

SMILES	inhibition of the uptake of the ligand (I-ASOR) in Panc-1 (Panc-1 cells)	inhibition of the uptake of the ligand (I-ASOR) in HepG2 [1]	inhibition of the uptake of the ligand (I-ASOR) in HepG2 [2]	CT images: appearance of high-absorption liquid (excretion sites) [3]	inhibitory ability on ligand uptake compared between compounds [2]
CC(=O)Nc1c(I)c(NC(C)=O)c(I)c(C(=O)NCCNC(=O)[C@H](O)[C@@H](O)C(O[C@@H]2OC(CO)[C@H](O)[C@H](O)C2O)[C@@H](O)CO)c1I (stereo partly drawn) [RYO-1]	none of RYO-1, MEG-1, and MEG-2 inhibited the uptake of the ligand	competitively inhibit the uptake of the ligand	competitively inhibited the uptake of the ligand in HepG2	–	–
O=C(NCCNC(=O)[C@H](O)[C@@H](O)[C@H](O[C@@H]1O[C@H](CO)[C@H](O)[C@H](O)[C@H]1O)[C@H](O)CO)c1c(I)c(C(=O)NCCNC(=O)[C@H](O)[C@@H](O)[C@H](O[C@@H]2O[C@H](CO)[C@H](O)[C@H](O)[C@H]2O)[C@H](O)CO)c(I)c(C(=O)NCCNC(=O)[C@H](O)[C@@H](O)C(O[C@@H]2O[C@H](CO)[C@H](O)[C@H](O)[C@H]2O)[C@H](O)CO)c1I (stereo partly drawn) [RYO-2]	–	–	competitively inhibited the uptake of the ligand in HepG2	a liquid that exhibited high absorption, which was not observed before administration, was confirmed to appear over time in the intestine and in the urinary bladder	higher in RYO-2 than in RYO-1
CC(=O)Nc1c(I)c(NC(C)=O)c(I)c(C(=O)NCCO[C@@H]2OC(CO)[C@H](O)C(O)[C@@H]2O)c1I (stereo partly drawn) [MEG-1]	none of RYO-1, MEG-1, and MEG-2 inhibited the uptake of the ligand	competitively inhibit the uptake of the ligand	–	a liquid that exhibited high absorption, which was not observed before administration, was confirmed to appear over time in the intestine and in the urinary bladder	–
O=C(NCCOCCO[C@@H]1OC(CO)[C@H](O)[C@H](O)C1O)c1c(I)c(C(=O)NCCOCCO[C@@H]2OC(CO)[C@H](O)[C@H](O)C2O)c(I)c(C(=O)NCCOCCO[C@@H]2OC(CO)[C@H](O)[C@H](O)C2O)c1I (stereo partly drawn) [MEG-4]	–	–	competitively inhibited the uptake of the ligand in HepG2	a liquid that exhibited high absorption, which was not observed before administration, was confirmed to appear over time in the intestine and in the urinary bladder	higher in MEG-4 than in MEG-2
